≈ marks a conversion by molar mass, not a printed value.
How the values were obtained:
[1] = test system: bryozoan Bugula neritina larvae; test: Anti-larval settlement bioassay, bryozoan; type: in vivo
Protocol: (§1) A. amphitrite adults were collected from Pak Sha Wan Pier, Hong Kong (22° 38′N, 114° 28′E) and after keeping in the dark for 24 h, a light source was used to stimulate the larval release. Within 1 h, the larvae were collected and cultured in 0.22 μm filtered seawater with a daily diet of Chaetoceros gracilis Schutt at 1×10^6 cells mL^−1 until their growth into cyprids, which were used for the anti-larval settlement bioassay. The bryozoan B. neritina adults were collected from a fish farm in Pak Shek Kok, Hong Kong (22° 43′N, 114° 20′E) and kept in flow-through seawater for no more than 7 days before use. The larvae were released within 30 minutes before the bioassay as described (Xu et al., 2010). The bioassay was conducted in a 24-well polystyrene tissue culture plate with 15-20 larvae in each well. 0.1% of DMSO in filtered seawater (FSW), and 0.625, 1.25, 2.5, 5, 10, 20, and 40 μg mL^−1 albofungin concentrations were tested in triplicate. In each well, 1 mL of FSW containing 15-20 larvae and 1 mL of albofungin solution of different concentrations. The plate was kept for 48 h at 25° C. (bryozoan B. neritina larvae were kept for 3 h). The wells with 0.1% of DMSO in FSW served as a negative control, and butenolide was used as a positive control. The number of attached, swimming, and dead larvae were counted under an Olympus optical microscope (Olympus Corporation, Tokyo, Japan). The settlement rate was calculated as the ratio of settled larvae to the total number of larvae in each well, and the death rate was calculated as the ratio of dead or missing larvae to the total number of larvae in each well. Half maximal effective concentration (EC50) and half lethal concentration (LC50) were determined for each compound, and the ratio of LC50/EC50 was used to evaluate the toxicity of the antifoulant. Experiments were performed in triplicate. Data were analyzed by one-way ANOVA to detect significant differences in the larval settlement, and SD was calculated by GraphPad Prism 9.

[2] = test system: Acinetobacter baumannii B-65371; test: Biofilm inhibition assay (MTT), pathogenic bacteria; type: cell-based; settings: lowest concentration inhibiting 90% of biofilm formation
Protocol: (§2) The ability of the bacteria to form static biofilms was tested. Marine bacteria were cultured overnight in marine broth at 22° C. with 220 rpm agitation (Pseudomonas pachastrellae MCCC 1A01390, Sulfitobacter pontiacus MCCC 1A04899 and Psychrobacter nivimaris MCCC 1A 11723) and at 30° C. (Staphylococcus aureus B04, Staphylococcus sp. Z01 and Micrococcus sp. Z02) and then diluted to 10^7 CFU mL^−1 in marine broth supplemented with 1% of glucose; pathogenic bacteria was cultured overnight in LB broth with 1% glucose with 220 rpm at 37° C. Afterwards, 200 μL of the diluted solution were added to each well of a 96-well plate (Corning Inc., New York, USA) and was then incubated at 22° C. or 30° C. for 24 h. The culture medium, planktonic cells and loosely adhered bacteria were removed by dual washing with a phosphate-buffered saline (PBS) buffer, and the firmly attached bacteria were incubated with 20 μL of MTT (5 mg mL^−1) at 37° C. for 3 h. The supernatant was discarded, and formazan was dissolved in 150 μL of DMSO. Absorbance was measured using the Multiskan™ FC microplate photometer (Thermo Fisher Scientific, Waltham, USA) under 570 nm, and MRSA ATCC 43300 was used as a positive control. All the experiments were performed in triplicate.
(§3) The antibacterial activities of albofungins were tested following specific protocols (She et al., 2020). Marine broth was used as the test medium for the marine bacteria, and the MHB broth was used as the test medium for the pathogenic bacteria. The plate was kept at 22° C. or 30° C. overnight, and the minimum inhibitory concentration (MIC) is the lowest concentration that the drug prevents the visible growth of bacteria. The bacteria which have successfully formed biofilms were further used for antibiofilm formation assays. Different concentrations of albofungin compounds were added to each well. Biofilm formation was assessed through the MTT assay as previously described. […] Data were analyzed using one-way ANOVA to detect significant differences and standard deviation (SD) was calculated using GraphPad Prism 9. All the assays were performed in triplicate.

Escherichia coli k12 = test: as above; type: cell-based; settings: lowest concentration inhibiting 90% of biofilm formation
Protocol: as §2, §3

[3] = test system: Enterobacter cloacae NRRL-B-425; test: as above; type: cell-based; settings: lowest concentration inhibiting 90% of biofilm formation
Protocol: as §2, §3

MRSA ATCC 43300 = test: as above; type: cell-based, Staphylococcus aureus; settings: lowest concentration inhibiting 90% of biofilm formation
Protocol: as §2
as §3, with “All the assays were performed in triplicate.” left out

[4] = Anti-larval settlement bioassay, barnacle; type: in vivo, Amphibalanus amphitrite; settings: Amphibalanus amphitrite (barnacle), cyprid larvae, in vivo; larval mortality, 48 h at 25° C.
Protocol: as §1

[5] = test system: barnacle Amphibalanus amphitrite larvae; test: Anti-larval settlement bioassay, barnacle; type: in vivo
Protocol: as §1

[6] = test system: MCCC 1A04899 Sulfitobacter pontiacus; test: Bacterial growth inhibition (antibacterial assay, MIC); type: cell-based
Protocol: as §3

[7] = test system: MCCC 1A01390 Pseudomonas pachastrellae; test: as above; type: cell-based; settings: Halopseudomonas pachastrellae; marine broth, overnight
Protocol: as §3

Micrococcus sp. Z02 [8] = test: as above; type: cell-based; settings: marine broth, overnight
Protocol: as §3

[9] = test system: MCCC 1A11723 Psychrobacter nivimaris; test: as above; type: cell-based; settings: marine broth, overnight
Protocol: as §3

Staphylococcus aureus 04 [10] = test: as above; type: cell-based; settings: marine broth, overnight
Protocol: as §3

Staphylococcus sp. Z01 [11] = test: as above; type: cell-based; settings: marine broth, overnight
Protocol: as §3

[12] = test system: MCCC 1A04899 Sulfitobacter pontiacus; test: Biofilm inhibition assay (MTT), marine bacteria; type: cell-based; settings: lowest concentration inhibiting 90% of biofilm formation; 24 h
Protocol: as §2, §3

[13] = test system: MCCC 1A01390 Pseudomonas pachastrellae; test: Biofilm inhibition assay (MTT), marine bacteria; type: cell-based; settings: lowest concentration inhibiting 90% of biofilm formation; 24 h
Protocol: as §2, §3

Micrococcus sp. Z02 [14] = test: Biofilm inhibition assay (MTT), marine bacteria; type: cell-based; settings: lowest concentration inhibiting 90% of biofilm formation; 24 h
Protocol: as §2, §3

[15] = test system: MCCC 1A11723 Psychrobacter nivimaris; test: Biofilm inhibition assay (MTT), marine bacteria; type: cell-based; settings: lowest concentration inhibiting 90% of biofilm formation; 24 h
Protocol: as §2, §3

Staphylococcus aureus 04 [16] = test: Biofilm inhibition assay (MTT), marine bacteria; type: cell-based; settings: lowest concentration inhibiting 90% of biofilm formation; 24 h
Protocol: as §2, §3

Staphylococcus sp. Z01 [17] = test: Biofilm inhibition assay (MTT), marine bacteria; type: cell-based; settings: lowest concentration inhibiting 90% of biofilm formation; 24 h
Protocol: as §2, §3

[18] = ratio used to evaluate toxicity of the antifoulant

CO[C@@H]1CC[C@H](O)c2c1oc1c3c4c(c(O)c1c2=O)-c1c(cc2cc(C)n(N)c(=O)c2c1O)C[C@H]4OCO3 [Albofungin (1), albofungin]
larval settlement ([1]; 2.5 μg mL^−1, 3 h): 44% (±9.0%)
EC50 ([1]; Bugula neritina, larval settlement, 3 h): 1.9 µg/mL (≈ 3.65 µM)
lethal effects ([1]; highest concentration tested): no lethal effects
LC50/EC50 [1, 18]: 52.6
MBIC90 [2]: 0.06 to 0.13 µg/mL
MBIC90 (Escherichia coli k12): 0.63 to 1.25 µg/mL
MBIC90 [3]: 1.25 to 2.5 µg/mL
MBIC90 (MRSA ATCC 43300): 0.01 to 0.03 µg/mL
LC50 at 48 h [4]: > 100 µg/mL
larval settlement rate ([5]; 2.5 μg mL^−1, 48 h): 33% (±5.3%)
EC50 ([5]; Amphibalanus amphitrite, 48 h): 1.6 µg/mL (≈ 3.07 µM)
antifouling activity against larval settlement compared with butenolide ([5]; according to the EC50 value): equivalent antifouling activity
settlement rate compared with control group (0.1% DMSO in FSW) ([5]; after 48 h of incubation): significantly lower
LC50/EC50 [5, 18]: 62.5
MIC [6]: 0.032 µg/mL (≈ 0.0615 µM)
MIC [7]: 0.5 µg/mL (≈ 0.961 µM)
MIC (Micrococcus sp. Z02 [8]): 3.2 ng/mL (≈ 0.00615 µM)
MIC [9]: > 20 µg/mL
MIC (Staphylococcus aureus 04 [10]): 3.2 ng/mL (≈ 0.00615 µM)
MIC (Staphylococcus sp. Z01 [11]): 0.8 ng/mL (≈ 0.00154 µM)
MBIC90 [12]: 0.13 to 0.25 µg/mL
MBIC90 [13]: 0.25 to 0.50 µg/mL
MBIC90 (Micrococcus sp. Z02 [14]): 31.25 to 62.50 ng/mL
MBIC90 [15]: 10 to 20 µg/mL
MBIC90 (Staphylococcus aureus 04 [16]): 15.63 to 31.25 ng/mL
MBIC90 (Staphylococcus sp. Z01 [17]): 0.63 to 1.25 ng/mL

From US12410323B2, “Potent antifouling agents albofungins target multiple fouling organisms” (The Hong Kong University of Science and Technology, priority 2021, dated 2025)
